According to patent US20250188162A1, “INHIBITOR OF INTERLEUKIN-1 RECEPTOR TYPE 1 FOR USE IN THE TREATMENT OF CANCER” (Buzzard Pharmaceuticals AB, priority 2022, published 2025):

Experiments:
NF-κB = NF-κB reporter response of pNGL RAW264.7 macrophages to tumor-conditioned media with bortezomib pre-treatment; assay type: cell-based, murine; details: pre-treatment 1 μg/mL (3 μM) for 1 hour
Method: FIG. 3. Tumor-secreted factors drive IKKβ activation, differentiation, and IL-1β secretion in macrophages. (A) Color-coded cancer cells with Kras mutation status. (B-E) Bioluminescent images with pseudocolor scale (B, E), immunoblots (C), and data summaries (D, E) from exposure of RAW264.7 macrophages stably expressing pNGL (B-D) and murine bone marrow derived macrophages (BMDM) obtained from NGL mice after one-week 100 ng/ml M-CSF exposure (E) to cell-free tumor-conditioned media or DMEM (white boxes) with or without bortezomib pre-treatment (1 μg/mL˜3 µM for 1 hour). (D, E) n=5/group; P, probability, one or two-way ANOVA; **** and ####, P<0.0001 compared with other groups or saline-treated cells, respectively, Bonferroni post-tests. (F) Flow cytometry-assessed differentiation marker expression of murine bone marrow cells before (day 0) and after (day 7) one-week M-CSF exposure. (G) Microarray strategy and top-five differentially expressed genes (ΔGE) of murine BMDM compared with cancer cells (ΔGE1) and of tumor-conditioned BMDM compared with naïve BMDM (ΔGE2). n=5/group; P, probability, one-way ANOVA. (H) Bioluminescent images and data summary of NGL, NGL; Tnf−/−, and NGL;Il1b−/− mice 14 days post-pleural injection of LLC cells. n=13/group; P, probability, one-way ANOVA; ** and ***, P<0.01 and P<0.001, respectively, compared with NGL mice, Bonferroni post-tests. […]

incident lung cancer = details: exploratory analysis of CANTOS; cited from earlier work
[1] = system: non-small cell lung cancer (NSCLC); details: second/third-line with docetaxel, irrespective of histologic subtype and driver mutation; cited from earlier work

Molecule	NF-κB response to KrasMUT tumor-conditioned media (NF-κB)	effect against incident lung cancer (incident lung cancer)	trial outcome [1]
CC(C)C[C@H](NC(=O)[C@H](Cc1ccccc1)NC(=O)c1cnccn1)B(O)O [bortezomib]	attenuated		
canakinumab: anti-IL-1β neutralizing monoclonal antibody		strong protective effects against incident lung cancer	negative
